In US12559492B2, “BRAF degraders” (C4 Therapeutics, Inc., priority 2020, dated 2026) one finds DC50 and Emax data, which are given here for seven molecules.

One may read the DC50 as the midpoint of the concentration-degradation curve. A high value points to a less potent degrader. Usually Emax stands for the size of the effect at its maximum, as opposed to the concentration needed.

The experiment deals with BRAF^V600E protein (Homo sapiens, UniProt P15056, V600E). The experiment is described as follows: HiBiT cellular BRAF V600E degradation assay. It is filed as cell-based. As to conditions: 24 h incubation; for DC50: A375.10 cells (HiBiT tag knocked in at N-terminal of BRAF V600E), concentration at which 50% of total cellular BRAF V600E is degraded; for Emax: A375.10 cells, Emax = amount of residual protein remaining in the cell after compound treatment, read-out: HiBit 24 h Emax.
Sequence of BRAF^V600E protein (P15056 whole entry V600E): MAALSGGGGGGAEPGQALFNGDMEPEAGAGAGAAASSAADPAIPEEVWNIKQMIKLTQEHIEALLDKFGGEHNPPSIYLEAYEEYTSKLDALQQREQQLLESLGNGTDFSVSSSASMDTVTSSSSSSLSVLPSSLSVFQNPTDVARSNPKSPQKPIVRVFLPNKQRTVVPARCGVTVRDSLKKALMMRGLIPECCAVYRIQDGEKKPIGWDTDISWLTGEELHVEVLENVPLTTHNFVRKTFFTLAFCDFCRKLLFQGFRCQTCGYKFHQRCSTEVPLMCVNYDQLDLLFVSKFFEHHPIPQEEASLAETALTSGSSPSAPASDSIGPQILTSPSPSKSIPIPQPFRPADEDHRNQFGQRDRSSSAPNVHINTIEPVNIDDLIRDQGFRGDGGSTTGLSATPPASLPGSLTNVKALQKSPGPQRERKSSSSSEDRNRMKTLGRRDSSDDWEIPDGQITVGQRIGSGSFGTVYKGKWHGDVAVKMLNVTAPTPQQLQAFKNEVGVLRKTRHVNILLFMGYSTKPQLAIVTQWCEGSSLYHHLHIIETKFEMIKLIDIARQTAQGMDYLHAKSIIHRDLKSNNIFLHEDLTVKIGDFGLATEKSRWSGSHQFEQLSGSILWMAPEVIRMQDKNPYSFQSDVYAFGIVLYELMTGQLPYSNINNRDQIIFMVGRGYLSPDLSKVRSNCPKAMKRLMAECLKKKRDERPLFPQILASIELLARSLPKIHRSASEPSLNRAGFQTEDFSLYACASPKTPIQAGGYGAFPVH

Take `CCN(C)S(=O)(=O)Nc1ccc(F)c(C(=O)c2c[nH]c3ncc(-c4cnc(C5CCN(C(=O)CN6CCC(c7ccc(NC8CCC(=O)NC8=O)cc7)CC6)CC5)nc4)cc23)c1F` (centres unmarked) [Example A46, 5-[2-[1-[2-[4-[4-[(2,6-Dioxopiperidin-3-yl)amino]phenyl]piperidin-1-yl]acetyl]piperidin-4-yl]pyrimidin-5-yl]-3-[3-[[ethyl(methyl)sulfamoyl]amino]-2,6-difluorobenzoyl]-1H-pyrrolo[2,3-b]pyridine]: half-maximal degradation (DC50) was put at 7.44 nM and the Emax came to 10.8%.

For the molecule `CCN(C)S(=O)(=O)Nc1ccc(F)c(C(=O)c2c[nH]c3ncc(-c4cnc(N5CC[C@@H](CC(=O)N6CCC(c7ccc(NC8CCC(=O)NC8=O)cc7)CC6)C5)nc4)cc23)c1F` (stereo partly drawn) [Example 131, 5-[2-[(3S)-3-[2-[4-[4-[(2,6-dioxo-3-piperidyl)amino]phenyl]-1-piperidyl]-2-oxo-ethyl]pyrrolidin-1-yl]pyrimidin-5-yl]-3-[3-[[ethyl(methyl)sulfamoyl]amino]-2,6-difluoro-benzoyl]-1H-pyrrolo[2,3-b]pyridine], the 50% degradation concentration (DC50) came out at 27.1 nM and the maximal response (Emax) came out at 21.2%.

Take `CCN(C)S(=O)(=O)Nc1cccc(C(=O)c2c[nH]c3ncc(-c4ccc(N5CCN(C(=O)CC6(O)CCN(c7ccc(NC8CCC(=O)NC8=O)cc7Cl)CC6)CC5)nc4)cc23)c1F` (centres unmarked) [Example 156, 5-[6-[4-[2-[1-[2-chloro-4-[(2,6-dioxo-3-piperidyl)amino]phenyl]-4-hydroxy-4-piperidyl]acetyl]piperazin-1-yl]-3-pyridyl]-3-[3-[[ethyl(methyl)sulfamoyl]amino]-2-fluoro-benzoyl]-1H-pyrrolo[2,3-b]pyridine]: it took 6.82 nM to reach half-maximal degradation (DC50) and the Emax was 9.35%.

Take `CCN(C)S(=O)(=O)Nc1ccc(F)c(C(=O)c2c[nH]c3ncc(-c4cnc(N5CCC(CC(=O)NC6CCN(c7ccc(NC8CCC(=O)NC8=O)cc7F)CC6)CC5)nc4)cc23)c1F` (centres unmarked) [Example 134, N-[1-[4-[(2,6-dioxo-3-piperidyl)amino]-2-fluoro-phenyl]-4-piperidyl]-2-[1-[5-[3-[3-[[ethyl(methyl)sulfamoyl]amino]-2,6-difluoro-benzoyl]-1H-pyrrolo[2,3-b]pyridin-5-yl]pyrimidin-2-yl]-4-piperidyl]acetamide]: it took 18.9 nM to reach half-maximal degradation (DC50) and the maximal effect (Emax) amounted to 11%.

In the case of `CCN(C)S(=O)(=O)Nc1ccc(F)c(C(=O)c2c[nH]c3ncc(-c4cnc(N5CCc6c(CN7CCC(c8ccc(NC9CCC(=O)NC9=O)cc8)CC7)cccc6C5)nc4)cc23)c1F` (centres unmarked) [Example 150, 5-[[4-[4-[(2,6-dioxo-3-piperidyl)amino]phenyl]-1-piperidyl]methyl]-2-[5-[3-[3-[[ethyl(methyl)sulfamoyl]amino]-2,6-difluoro-benzoyl]-1H-pyrrolo[2,3-b]pyridin-5-yl]pyrimidin-2-yl]-3,4-dihydro-1H-isoquinoline], it took 32.8 nM to reach half-maximal degradation (DC50) and the maximal response (Emax) was 13.3%.

For the molecule `CCN(C)S(=O)(=O)Nc1ccc(F)c(C(=O)c2c[nH]c3ncc(-c4cnc(N5CCN(C(=O)CCCN6CCC(c7ccc(NC8CCC(=O)NC8=O)cc7)CC6)CC5)nc4)cc23)c1F` (centres unmarked) [Example A18, 5-[2-[4-[4-[4-[4-[(2,6-Dioxopiperidin-3-yl)amino]phenyl]piperidin-1-yl]butanoyl]piperazin-1-yl]pyrimidin-5-yl]-3-[3-[[ethyl(methyl)sulfamoyl]amino]-2,6-difluorobenzoyl]-1H-pyrrolo[2,3-b]pyridine], half-maximal degradation (DC50) was put at 42 nM and the Emax was found to be 15%.

For the molecule `CCC(C)S(=O)(=O)Nc1ccc(F)c(C(=O)c2c[nH]c3ncc(-c4ccc(N5CCN(C(=O)CN6CCC(c7ccc(OC8CCC(=O)NC8=O)cc7)CC6)CC5)nc4)cc23)c1F` (centres unmarked) [Example A28, N-[3-[5-[6-[4-[2-[4-[4-(2,6-Dioxopiperidin-3-yl)oxyphenyl]piperidin-1-yl]acetyl]piperazin-1-yl]pyridin-3-yl]-1H-pyrrolo[2,3-b]pyridine-3-carbonyl]-2,4-difluorophenyl]butane-2-sulfonamide], half-maximal degradation (DC50) was put at 12 nM and the Emax was 14%.
